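Values below derive from 48-hour exposures of cells grown in 96-well plates, with endpoints linearly interpolated between the two concentrations bracketing the appropriate inhibition level. Here, GI50 denotes the concentration required for 50% inhibition of growth.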 The source made the active and inactive calls. Rule as the data show it: active = GI50 up to about 1.1 µM and inactive = higher.
What was measured:
Assay in all cases: NCI anticancer screen, dose series, 48 h
786-0 = test system: 786-0
A498 = test system: A498
A549 = test system: A549
ACHN = test system: ACHN
CAKI-1 = test system: CAKI-1
CCRF-CEM = test system: CCRF-CEM
COLO 205 = test system: COLO 205
DLD-1 = test system: DLD-1
DMS-273 = test system: DMS-273
EKVX = test system: EKVX
HCC 2998 = test system: HCC 2998
HCT-116 = test system: HCT-116
HCT-15 = test system: HCT-15
HL-60 = test system: HL-60
HOP-18 = test system: HOP-18
HOP-62 = test system: HOP-62
HT-29 = test system: HT-29
IGROV-1 = test system: IGROV-1
K562 = test system: K562
KM-20L2 = test system: KM-20L2
KM12 = test system: KM12
LOX IMVI = test system: LOX IMVI
LXFL 529 = test system: LXFL 529
M14 = test system: M14
M19-MEL = test system: M19-MEL
MOLT-4 = test system: MOLT-4
Malme-3M = test system: Malme-3M
NCI-H226 = test system: NCI-H226
NCI-H23 = test system: NCI-H23
NCI-H460 = test system: NCI-H460
NCI-H522 = test system: NCI-H522
OVCAR-3 = test system: OVCAR-3
OVCAR-4 = test system: OVCAR-4
OVCAR-5 = test system: OVCAR-5
OVCAR-8 = test system: OVCAR-8
RXF 393 = test system: RXF 393
RXF 631 = test system: RXF 631
SF-268 = test system: SF-268
SF-295 = test system: SF-295
SF-539 = test system: SF-539
SK-MEL-28 = test system: SK-MEL-28
SK-MEL-2 = test system: SK-MEL-2
SK-MEL-5 = test system: SK-MEL-5
SK-OV-3 = test system: SK-OV-3
SN12C = test system: SN12C
SNB-19 = test system: SNB-19
SNB-75 = test system: SNB-75
SNB-78 = test system: SNB-78
SW-620 = test system: SW-620
TK-10 = test system: TK-10
U-251 = test system: U-251
UACC-257 = test system: UACC-257
UACC-62 = test system: UACC-62
UO-31 = test system: UO-31
XF498 = test system: XF498
DMS-114 = test system: DMS-114
HOP-92 = test system: HOP-92
RPMI-8226 = test system: RPMI-8226
SR = test system: SR

CCOc1cccc2[s+]snc12
GI50 (786-0): > 100 µM (inactive)
GI50 (A498): > 100 µM (inactive)
GI50 (A549): > 100 µM (inactive)
GI50 (ACHN): > 100 µM (inactive)
GI50 (CAKI-1): > 100 µM (inactive)
GI50 (CCRF-CEM): 62.8 µM (inactive)
GI50 (COLO 205): > 100 µM (inactive)
GI50 (DLD-1): 43.9 µM (inactive)
GI50 (DMS-273): > 100 µM (inactive)
GI50 (EKVX): > 100 µM (inactive)
GI50 (HCC 2998): > 100 µM (inactive)
GI50 (HCT-116): > 100 µM (inactive)
GI50 (HCT-15): > 100 µM
GI50 (HL-60): 30.2 µM (inactive)
GI50 (HOP-18): 77.8 µM (inactive)
GI50 (HOP-62): > 100 µM (inactive)
GI50 (HT-29): > 100 µM (inactive)
GI50 (IGROV-1): > 100 µM (inactive)
GI50 (K562): 39.8 µM (inactive)
GI50 (KM-20L2): > 100 µM (inactive)
GI50 (KM12): > 100 µM (inactive)
GI50 (LOX IMVI): 50.1 µM (inactive)
GI50 (LXFL 529): 77.4 µM (inactive)
GI50 (M14): > 100 µM (inactive)
GI50 (M19-MEL): 56 µM (inactive)
GI50 (MOLT-4): 78.2 µM (inactive)
GI50 (Malme-3M): > 100 µM (inactive)
GI50 (NCI-H226): > 100 µM (inactive)
GI50 (NCI-H23): > 10 µM (inactive)
GI50 (NCI-H460): > 100 µM (inactive)
GI50 (NCI-H522): 27.8 µM (inactive)
GI50 (OVCAR-3): 30.3 µM (inactive)
GI50 (OVCAR-4): 58.5 µM (inactive)
GI50 (OVCAR-5): > 100 µM (inactive)
GI50 (OVCAR-8): 54.3 µM (inactive)
GI50 (RXF 393): > 100 µM (inactive)
GI50 (RXF 631): > 100 µM (inactive)
GI50 (SF-268): 98.4 µM (inactive)
GI50 (SF-295): > 100 µM (inactive)
GI50 (SF-539): 46.8 µM (inactive)
GI50 (SK-MEL-28): > 100 µM (inactive)
GI50 (SK-MEL-2): > 100 µM (inactive)
GI50 (SK-MEL-5): 23.6 µM (inactive)
GI50 (SK-OV-3): > 100 µM (inactive)
GI50 (SN12C): > 100 µM (inactive)
GI50 (SNB-19): > 100 µM (inactive)
GI50 (SNB-75): 25.6 µM (inactive)
GI50 (SNB-78): 49.3 µM (inactive)
GI50 (SW-620): > 100 µM (inactive)
GI50 (TK-10): > 100 µM (inactive)
GI50 (U-251): 33.8 µM (inactive)
GI50 (UACC-257): > 100 µM (inactive)
GI50 (UACC-62): 40.3 µM (inactive)
GI50 (UO-31): 37.3 µM (inactive)
GI50 (XF498): 25.2 µM (inactive)

COc1ccc(NC(=O)C(=O)Cc2ccc([N+](=O)[O-])c([N+](=O)[O-])c2CC(=O)C(=O)Nc2ccc(OC)cc2OC)c(OC)c1
GI50 (786-0): > 100 µM (inactive)
GI50 (A498): > 100 µM (inactive)
GI50 (A549): > 100 µM (inactive)
GI50 (ACHN): > 100 µM (inactive)
GI50 (CAKI-1): > 100 µM (inactive)
GI50 (CCRF-CEM): > 100 µM (inactive)
GI50 (COLO 205): > 100 µM (inactive)
GI50 (DLD-1): > 100 µM (inactive)
GI50 (DMS-114): > 100 µM (inactive)
GI50 (DMS-273): > 100 µM (inactive)
GI50 (EKVX): > 100 µM (inactive)
GI50 (HCC 2998): > 100 µM (inactive)
GI50 (HCT-116): > 100 µM (inactive)
GI50 (HCT-15): > 100 µM
GI50 (HL-60): > 100 µM (inactive)
GI50 (HOP-18): > 100 µM (inactive)
GI50 (HOP-62): > 100 µM (inactive)
GI50 (HOP-92): > 100 µM (inactive)
GI50 (HT-29): > 100 µM (inactive)
GI50 (IGROV-1): > 100 µM (inactive)
GI50 (K562): > 100 µM (inactive)
GI50 (KM-20L2): > 100 µM (inactive)
GI50 (KM12): > 100 µM (inactive)
GI50 (LOX IMVI): > 100 µM (inactive)
GI50 (LXFL 529): > 100 µM (inactive)
GI50 (M14): > 100 µM (inactive)
GI50 (M19-MEL): 95.9 µM (inactive)
GI50 (MOLT-4): > 100 µM (inactive)
GI50 (Malme-3M): > 100 µM (inactive)
GI50 (NCI-H226): > 100 µM (inactive)
GI50 (NCI-H23): > 100 µM (inactive)
GI50 (NCI-H460): > 100 µM (inactive)
GI50 (NCI-H522): 58.6 µM (inactive)
GI50 (OVCAR-3): > 100 µM (inactive)
GI50 (OVCAR-4): > 100 µM (inactive)
GI50 (OVCAR-5): > 100 µM (inactive)
GI50 (OVCAR-8): > 100 µM (inactive)
GI50 (RPMI-8226): > 100 µM (inactive)
GI50 (RXF 393): > 100 µM (inactive)
GI50 (RXF 631): > 100 µM (inactive)
GI50 (SF-268): > 100 µM (inactive)
GI50 (SF-295): > 100 µM (inactive)
GI50 (SK-MEL-28): > 100 µM (inactive)
GI50 (SK-OV-3): > 100 µM (inactive)
GI50 (SN12C): > 100 µM (inactive)
GI50 (SNB-19): > 100 µM (inactive)
GI50 (SNB-75): 96.2 µM (inactive)
GI50 (SNB-78): > 100 µM (inactive)
GI50 (SR): > 100 µM (inactive)
GI50 (SW-620): > 100 µM (inactive)
GI50 (TK-10): > 100 µM (inactive)
GI50 (U-251): > 100 µM (inactive)
GI50 (UACC-257): > 100 µM (inactive)
GI50 (UACC-62): > 100 µM (inactive)
GI50 (UO-31): > 100 µM (inactive)

O=C1c2ccccc2-c2cccc3ccc(Cc4ccc5ccccc5c4)c1c23
GI50 (786-0): 76.6 µM (inactive)
GI50 (A549): > 100 µM (inactive)
GI50 (ACHN): > 100 µM (inactive)
GI50 (CCRF-CEM): > 100 µM (inactive)
GI50 (COLO 205): > 100 µM (inactive)
GI50 (DLD-1): > 100 µM (inactive)
GI50 (DMS-273): 88.3 µM (inactive)
GI50 (EKVX): > 100 µM (inactive)
GI50 (HCC 2998): > 100 µM (inactive)
GI50 (HCT-116): > 100 µM (inactive)
GI50 (HCT-15): > 100 µM
GI50 (HL-60): > 100 µM (inactive)
GI50 (HOP-62): > 100 µM (inactive)
GI50 (HOP-92): 49.4 µM (inactive)
GI50 (HT-29): > 100 µM (inactive)
GI50 (IGROV-1): > 100 µM (inactive)
GI50 (K562): 29.4 µM (inactive)
GI50 (KM-20L2): > 100 µM (inactive)
GI50 (KM12): > 100 µM (inactive)
GI50 (M14): > 100 µM (inactive)
GI50 (M19-MEL): > 100 µM (inactive)
GI50 (MOLT-4): > 100 µM (inactive)
GI50 (Malme-3M): > 100 µM (inactive)
GI50 (NCI-H23): > 100 µM (inactive)
GI50 (NCI-H460): > 100 µM (inactive)
GI50 (NCI-H522): 15.6 µM (inactive)
GI50 (OVCAR-3): > 100 µM (inactive)
GI50 (OVCAR-4): > 100 µM (inactive)
GI50 (OVCAR-5): > 100 µM (inactive)
GI50 (OVCAR-8): > 100 µM (inactive)
GI50 (RPMI-8226): > 100 µM (inactive)
GI50 (RXF 393): 48.2 µM (inactive)
GI50 (RXF 631): > 100 µM (inactive)
GI50 (SF-268): > 100 µM (inactive)
GI50 (SF-295): > 100 µM (inactive)
GI50 (SF-539): > 100 µM (inactive)
GI50 (SK-MEL-28): > 100 µM (inactive)
GI50 (SK-MEL-2): > 100 µM (inactive)
GI50 (SK-MEL-5): > 100 µM (inactive)
GI50 (SN12C): > 100 µM (inactive)
GI50 (SNB-19): > 100 µM (inactive)
GI50 (SNB-75): 26.4 µM (inactive)
GI50 (SNB-78): > 100 µM (inactive)
GI50 (SW-620): > 100 µM (inactive)
GI50 (TK-10): > 100 µM (inactive)
GI50 (U-251): 98.2 µM (inactive)
GI50 (UACC-257): > 100 µM (inactive)
GI50 (UACC-62): > 100 µM (inactive)
GI50 (UO-31): > 100 µM (inactive)
GI50 (XF498): 30.3 µM (inactive)
